Data as given in patent US20260001875A1, “AMINOPYRIMIDINYL DERIVATIVES FOR THE TREATMENT OF PARKINSON'S DISEASE” (UNIVERSITY OF DUNDEE, priority 2022, published 2026).

Experiments:
LRRK2^R1441C = LRRK2^R1441C (Mus musculus, UniProt Q5S006, R1441C); assay: Western blot LRRK2 degradation in LRRK2^R1441C MEFs; format: cell-based; conditions: 4 h treatment
Rab10 pThr73 = assay: Rab10 Thr73 dephosphorylation in LRRK2^R1441C MEFs; format: cell-based; conditions: Mus musculus; dose response, 4 h treatment
Description: Primary MEFs were generated as described in a previous study (Wiggin et al., Mol. Cell Biol. 2002 April; 22(8):2871-81.). Briefly, the uterine horn was collected from adult female mice at day E12.5 and transferred to a 10 cm tissue culture dish containing cold PBS. Two forceps were used to tear the yolk sacs to isolate each embryo. Forceps were cleaned thoroughly with 70% ethanol between each embryo isolation. The embryos were culled, and a tissue piece was collected in a PCR tube for genotyping. The red tissue of the embryo, which grows to become the heart and liver, was removed. The remainder of the embryo was minced with a scalpel blade and incubated with 7.5 ml trypsin-EDTA solution for 10 minutes in a 37° C. tissue culture CO2 incubator. The dish was removed from the incubator and checked under a light microscope for single cells. 7.5 ml complete media was added to the trypsinised cells, and the cell suspension was transferred to a 15 ml Falcon tube, centrifuged at 1200 rpm for 5 minutes at room temperature. […]
Culturing and passaging of adherent cell lines were carried out using aseptic technique in CL1 or CL2 (for PBMC isolation) biological safety cabinets. […] The cell pellet was discarded, and supernatant was collected for analysis by quantitative immunoblotting. […] Protein concentrations of cell lysates were determined using the Bradford assay. […]

LRRK2 = LRRK2 (Homo sapiens, UniProt Q5S007); assay: NanoBRET-based ternary binding and cooperativity assay; parameters: fused on or other part: NanoLuc luciferase fused to LRRK2 as the BRET donor tag; conditions: permeabilized HEK293 cells, with VCB; read-out: IC50 LRRK2 engagement in the presence of VCB protein
Procedure: The HEK293 cells were transfected with LRRK2-NanoLuc fusion vector (Promega, NV3401) following Promega's protocol and seeded into white 384-well plate (Corning3570) at a density of 6000 cells/well. The cells were then treated with 50 μg/mL of digitonin, 125 nM of LRRK2 tracer, testing compounds at decreasing concentrations (11 concentrations with 2-fold serial dilution starting from 10 μM) or testing compounds and VCB mix (11 concentrations with 2-fold serial dilution starting from 10 μM compound for the compound. The first 6 concentrations of VCB start from 32 μM with 2-fold dilution, the last 5 concentrations of VCB keep at 1 μM), and NanoBRET NanoGlo Substrate (Promega) at concentration recommended by the manufacturer's protocol. In the maximum signal control samples (DMSO control), DMSO was added instead of testing compounds. In the minimum signal control samples (no tracer control), DMSO and LRRK2 tracer dilution buffer were used to replace testing compounds and LRRK2 tracer separately. The filtered luminescence was measured within 10 min following addition of the substrate on a PHERAstar (BMG LABTECH) plate reader equipped with a 450-nm bandpass filter (donor) and a 600-nm long pass filter (acceptor). The fractional occupancy was calculated according to the equation: fractional occupancy=(mBRETtesting compound−mBRETno tracer control)/(mBRETDMSO control−mBRETno tracer control).

Chain of LRRK2 (Q5S007 whole entry, the tested form may be a part): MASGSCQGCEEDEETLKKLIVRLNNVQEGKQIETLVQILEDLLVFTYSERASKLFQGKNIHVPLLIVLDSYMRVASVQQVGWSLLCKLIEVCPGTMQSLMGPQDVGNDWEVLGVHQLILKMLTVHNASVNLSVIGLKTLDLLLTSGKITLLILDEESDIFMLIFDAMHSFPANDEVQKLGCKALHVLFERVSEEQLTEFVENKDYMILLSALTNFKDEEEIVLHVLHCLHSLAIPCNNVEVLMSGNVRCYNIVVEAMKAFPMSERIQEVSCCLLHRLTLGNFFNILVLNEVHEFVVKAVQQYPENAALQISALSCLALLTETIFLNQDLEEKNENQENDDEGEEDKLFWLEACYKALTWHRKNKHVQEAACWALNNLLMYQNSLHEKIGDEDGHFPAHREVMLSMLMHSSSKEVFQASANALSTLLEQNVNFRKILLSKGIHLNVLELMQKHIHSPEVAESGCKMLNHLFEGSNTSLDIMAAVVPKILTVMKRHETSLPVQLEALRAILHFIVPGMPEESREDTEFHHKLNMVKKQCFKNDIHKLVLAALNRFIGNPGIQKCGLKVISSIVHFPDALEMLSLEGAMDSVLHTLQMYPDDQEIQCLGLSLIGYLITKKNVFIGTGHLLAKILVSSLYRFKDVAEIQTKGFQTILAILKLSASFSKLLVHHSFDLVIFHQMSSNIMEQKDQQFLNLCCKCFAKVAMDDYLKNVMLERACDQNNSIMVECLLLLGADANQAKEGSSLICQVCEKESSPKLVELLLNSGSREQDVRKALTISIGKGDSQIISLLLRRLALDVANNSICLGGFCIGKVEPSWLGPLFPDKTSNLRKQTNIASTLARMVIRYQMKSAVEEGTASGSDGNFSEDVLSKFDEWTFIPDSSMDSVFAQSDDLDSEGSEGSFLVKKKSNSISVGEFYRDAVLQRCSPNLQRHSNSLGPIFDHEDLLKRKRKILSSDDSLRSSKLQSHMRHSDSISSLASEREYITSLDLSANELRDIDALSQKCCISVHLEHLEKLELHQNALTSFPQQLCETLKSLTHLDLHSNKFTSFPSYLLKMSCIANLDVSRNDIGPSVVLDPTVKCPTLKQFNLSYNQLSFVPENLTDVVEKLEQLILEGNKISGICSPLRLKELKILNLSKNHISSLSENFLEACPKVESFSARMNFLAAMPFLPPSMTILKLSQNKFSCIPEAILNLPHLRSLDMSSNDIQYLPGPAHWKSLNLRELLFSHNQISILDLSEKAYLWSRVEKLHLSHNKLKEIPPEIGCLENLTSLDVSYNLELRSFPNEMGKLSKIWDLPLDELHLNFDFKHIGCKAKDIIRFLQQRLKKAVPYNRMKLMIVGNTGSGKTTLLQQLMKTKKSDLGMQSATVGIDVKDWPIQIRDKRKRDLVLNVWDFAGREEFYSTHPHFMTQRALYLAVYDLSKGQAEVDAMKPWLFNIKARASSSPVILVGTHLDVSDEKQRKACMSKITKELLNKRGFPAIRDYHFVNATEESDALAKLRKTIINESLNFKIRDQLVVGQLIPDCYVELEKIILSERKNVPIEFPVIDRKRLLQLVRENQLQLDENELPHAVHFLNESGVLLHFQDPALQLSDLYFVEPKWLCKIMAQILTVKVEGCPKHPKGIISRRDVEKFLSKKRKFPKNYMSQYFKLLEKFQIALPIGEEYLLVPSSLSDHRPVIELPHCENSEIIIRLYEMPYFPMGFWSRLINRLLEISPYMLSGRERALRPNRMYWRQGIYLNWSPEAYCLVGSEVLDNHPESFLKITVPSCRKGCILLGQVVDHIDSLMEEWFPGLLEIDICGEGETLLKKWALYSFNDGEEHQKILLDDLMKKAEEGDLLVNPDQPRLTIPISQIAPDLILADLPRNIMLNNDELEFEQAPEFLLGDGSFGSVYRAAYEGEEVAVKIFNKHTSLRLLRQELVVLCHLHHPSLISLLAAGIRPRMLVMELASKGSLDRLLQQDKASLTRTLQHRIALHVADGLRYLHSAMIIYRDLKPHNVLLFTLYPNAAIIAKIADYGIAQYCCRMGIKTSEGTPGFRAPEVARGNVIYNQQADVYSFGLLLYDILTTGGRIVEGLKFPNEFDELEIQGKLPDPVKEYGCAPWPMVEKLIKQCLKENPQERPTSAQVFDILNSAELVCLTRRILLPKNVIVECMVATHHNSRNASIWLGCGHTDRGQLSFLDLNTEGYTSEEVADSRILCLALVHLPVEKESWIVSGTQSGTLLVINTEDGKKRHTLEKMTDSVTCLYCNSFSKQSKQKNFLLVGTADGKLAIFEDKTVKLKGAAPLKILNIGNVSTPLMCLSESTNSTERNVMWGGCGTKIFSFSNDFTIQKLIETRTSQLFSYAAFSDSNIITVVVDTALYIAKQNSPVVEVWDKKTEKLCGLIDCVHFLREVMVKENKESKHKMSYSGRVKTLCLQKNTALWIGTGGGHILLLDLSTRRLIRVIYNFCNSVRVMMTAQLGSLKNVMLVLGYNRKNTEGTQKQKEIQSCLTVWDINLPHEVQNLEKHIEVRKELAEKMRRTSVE
Chain of LRRK2^R1441C (Q5S006 whole entry R1441C): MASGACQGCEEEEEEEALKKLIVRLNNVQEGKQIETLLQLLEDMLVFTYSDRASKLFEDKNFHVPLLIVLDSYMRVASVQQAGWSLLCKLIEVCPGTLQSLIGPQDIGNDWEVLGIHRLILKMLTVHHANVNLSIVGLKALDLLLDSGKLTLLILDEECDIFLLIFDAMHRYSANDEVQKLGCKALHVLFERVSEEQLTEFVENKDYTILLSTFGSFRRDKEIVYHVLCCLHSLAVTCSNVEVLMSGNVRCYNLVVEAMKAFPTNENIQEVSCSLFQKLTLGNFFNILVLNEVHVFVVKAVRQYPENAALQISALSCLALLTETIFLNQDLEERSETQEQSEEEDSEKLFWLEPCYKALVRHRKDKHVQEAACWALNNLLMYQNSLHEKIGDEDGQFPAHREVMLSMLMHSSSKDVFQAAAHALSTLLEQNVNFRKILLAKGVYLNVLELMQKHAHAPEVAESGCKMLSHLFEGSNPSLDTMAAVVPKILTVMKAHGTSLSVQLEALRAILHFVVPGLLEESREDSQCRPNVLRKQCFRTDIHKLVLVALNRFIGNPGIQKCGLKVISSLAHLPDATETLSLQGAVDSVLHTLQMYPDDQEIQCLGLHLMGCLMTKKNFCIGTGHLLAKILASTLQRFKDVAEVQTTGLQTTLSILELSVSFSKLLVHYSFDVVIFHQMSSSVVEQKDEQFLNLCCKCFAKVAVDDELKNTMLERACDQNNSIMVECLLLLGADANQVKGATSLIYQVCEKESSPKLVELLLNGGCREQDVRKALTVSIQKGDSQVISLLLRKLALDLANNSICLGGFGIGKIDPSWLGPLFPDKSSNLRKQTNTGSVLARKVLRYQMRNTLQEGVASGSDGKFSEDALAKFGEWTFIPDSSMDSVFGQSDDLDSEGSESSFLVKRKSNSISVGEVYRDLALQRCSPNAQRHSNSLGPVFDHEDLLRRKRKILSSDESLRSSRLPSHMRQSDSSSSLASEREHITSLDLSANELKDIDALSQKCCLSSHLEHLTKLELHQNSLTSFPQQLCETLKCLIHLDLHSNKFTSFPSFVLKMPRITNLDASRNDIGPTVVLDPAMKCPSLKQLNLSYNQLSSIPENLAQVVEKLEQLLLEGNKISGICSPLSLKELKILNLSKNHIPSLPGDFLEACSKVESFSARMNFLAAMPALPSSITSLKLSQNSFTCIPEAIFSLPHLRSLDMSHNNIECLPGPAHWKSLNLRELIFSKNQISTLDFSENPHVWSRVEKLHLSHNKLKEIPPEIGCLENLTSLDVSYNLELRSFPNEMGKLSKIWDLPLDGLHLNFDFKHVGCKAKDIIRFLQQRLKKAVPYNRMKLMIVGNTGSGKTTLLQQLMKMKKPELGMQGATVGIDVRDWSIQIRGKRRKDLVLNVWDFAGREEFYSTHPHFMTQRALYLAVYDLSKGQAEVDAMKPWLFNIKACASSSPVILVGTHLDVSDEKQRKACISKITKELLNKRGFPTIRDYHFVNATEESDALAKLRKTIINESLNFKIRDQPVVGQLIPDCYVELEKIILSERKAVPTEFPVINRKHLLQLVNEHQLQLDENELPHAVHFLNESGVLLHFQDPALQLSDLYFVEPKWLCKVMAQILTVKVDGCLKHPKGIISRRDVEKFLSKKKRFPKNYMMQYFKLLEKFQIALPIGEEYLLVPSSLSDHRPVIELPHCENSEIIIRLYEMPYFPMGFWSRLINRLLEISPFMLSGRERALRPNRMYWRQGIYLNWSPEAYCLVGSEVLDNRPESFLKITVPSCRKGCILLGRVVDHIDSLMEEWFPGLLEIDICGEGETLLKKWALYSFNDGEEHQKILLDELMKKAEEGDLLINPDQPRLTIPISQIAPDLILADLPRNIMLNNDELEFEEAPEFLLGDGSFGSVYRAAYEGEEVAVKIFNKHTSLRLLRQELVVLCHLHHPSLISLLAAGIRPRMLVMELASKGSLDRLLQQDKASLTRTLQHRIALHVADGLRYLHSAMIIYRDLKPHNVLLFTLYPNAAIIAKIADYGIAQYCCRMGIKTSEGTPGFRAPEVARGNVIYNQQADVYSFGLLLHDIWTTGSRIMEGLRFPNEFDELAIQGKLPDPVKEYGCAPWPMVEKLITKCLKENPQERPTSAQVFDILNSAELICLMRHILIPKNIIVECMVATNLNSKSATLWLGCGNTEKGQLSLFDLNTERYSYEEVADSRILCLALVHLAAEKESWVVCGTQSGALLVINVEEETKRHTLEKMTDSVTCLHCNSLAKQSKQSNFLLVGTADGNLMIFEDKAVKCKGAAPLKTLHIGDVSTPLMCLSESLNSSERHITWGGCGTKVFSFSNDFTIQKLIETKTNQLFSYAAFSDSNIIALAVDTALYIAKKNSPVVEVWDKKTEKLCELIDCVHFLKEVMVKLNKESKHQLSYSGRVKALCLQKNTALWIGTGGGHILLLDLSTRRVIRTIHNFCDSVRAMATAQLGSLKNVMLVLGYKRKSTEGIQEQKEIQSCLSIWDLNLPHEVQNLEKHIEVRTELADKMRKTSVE

LRRK2^R1441C degradation (in words) (LRRK2^R1441C) | SMILES | EC50 (Rab10 pThr73) [µM] | IC50 (LRRK2) [µM] | Dmax of LRRK2^R1441C degradation (LRRK2^R1441C; dose response)
cannot degrade LRRK2^R1441C | CNc1nc(Nc2ccc(C(=O)N3CCN(C[C@H]4CC[C@H](CSC(C)(C)[C@H](NC(=O)C5(F)CC5)C(=O)N5C[C@@H](O)CC5C(=O)NCc5ccc(-c6scnc6C)cc5)CC4)CC3)cc2OC)ncc1Cl (stereo partly drawn) [Cis-XL01126, (2S,4S)-1-((R)-3-((((1r,4R)-4-((4-(4-((5-chloro-4-(methylamino)pyrimidin-2-yl)amino)-3-methoxybenzoyl)piperazin-1-yl)methyl)cyclohexyl)methyl)thio)-2-(1-fluorocyclopropane-1-carboxamido)-3-methylbutanoyl)-4-hydroxy-N-(4-(4-methylthiazol-5-yl)benzyl)pyrrolidine-2-carboxamide] | 0.158 |  | 
 | CNc1nc(Nc2ccc(C(=O)N3CCN(CCOCCOCCSC(C)(C)[C@H](NC(=O)C4(F)CC4)C(=O)N4C[C@H](O)C[C@H]4C(=O)NCc4ccc(-c5scnc5C)cc4)CC3)cc2OC)ncc1Cl [SD75, (2S,4R)-1-((R)-3-((2-(2-(2-(4-(4-((5-chloro-4-(methylamino)pyrimidin-2-yl)amino)-3-methoxybenzoyl)piperazin-1-yl)ethoxy)ethoxy)ethyl)thio)-2-(1-fluorocyclopropane-1-carboxamido)-3-methylbutanoyl)-4-hydroxy-N-(4-(4-methylthiazol-5-yl)benzyl)pyrrolidine-2-carboxamide] |  | 1.4 | 
 | CNc1nc(Nc2ccc(C(=O)N3CCN(C[C@H]4CC[C@H](CSC(C)(C)[C@H](NC(=O)C5(F)CC5)C(=O)N5C[C@H](O)CC5C(=O)NCc5ccc(-c6scnc6C)cc5)CC4)CC3)cc2OC)ncc1Cl (stereo partly drawn) [XL01126, (2S,4R)-1-((R)-3-((((1R,4R)-4-((4-(4-((5-chloro-4-(methylamino)pyrimidin-2-yl)amino)-3-methoxybenzoyl)piperazin-1-yl)methyl)cyclohexyl)methyl)thio)-2-(1-fluorocyclopropane-1-carboxamido)-3-methylbutanoyl)-4-hydroxy-N-(4-(4-methylthiazol-5-yl)benzyl)pyrrolidine-2-carboxamide] | 0.03 | 0.35 | 80-90%
 | CNc1nc(Nc2ccc(C(=O)N3CCN(C[C@H]4CC[C@@H](CSC(C)(C)[C@H](NC(=O)C5(F)CC5)C(=O)N5C[C@H](O)CC5C(=O)NCc5ccc(-c6scnc6C)cc5)CC4)CC3)cc2OC)ncc1Cl (stereo partly shown) [XL01134] |  | 0.79 | 
